From ChEMBL document CHEMBL5678810

Assays:
[1] = target: Mitogen-activated protein kinase kinase kinase 20 (Homo sapiens) (UniProt Q9NYL2); assay: Inhibition of T7 bacteriophage fused human ZAK at 10 uM by KINOMEscan analysis relative to control
[2] = target: T1, Serine/threonine-protein kinase TAO1 (Homo sapiens) (UniProt Q7L7X3); assay: Inhibition of T7 bacteriophage fused human TAOK1 at 10 uM by KINOMEscan analysis relative to control
T1 sequence (whole entry): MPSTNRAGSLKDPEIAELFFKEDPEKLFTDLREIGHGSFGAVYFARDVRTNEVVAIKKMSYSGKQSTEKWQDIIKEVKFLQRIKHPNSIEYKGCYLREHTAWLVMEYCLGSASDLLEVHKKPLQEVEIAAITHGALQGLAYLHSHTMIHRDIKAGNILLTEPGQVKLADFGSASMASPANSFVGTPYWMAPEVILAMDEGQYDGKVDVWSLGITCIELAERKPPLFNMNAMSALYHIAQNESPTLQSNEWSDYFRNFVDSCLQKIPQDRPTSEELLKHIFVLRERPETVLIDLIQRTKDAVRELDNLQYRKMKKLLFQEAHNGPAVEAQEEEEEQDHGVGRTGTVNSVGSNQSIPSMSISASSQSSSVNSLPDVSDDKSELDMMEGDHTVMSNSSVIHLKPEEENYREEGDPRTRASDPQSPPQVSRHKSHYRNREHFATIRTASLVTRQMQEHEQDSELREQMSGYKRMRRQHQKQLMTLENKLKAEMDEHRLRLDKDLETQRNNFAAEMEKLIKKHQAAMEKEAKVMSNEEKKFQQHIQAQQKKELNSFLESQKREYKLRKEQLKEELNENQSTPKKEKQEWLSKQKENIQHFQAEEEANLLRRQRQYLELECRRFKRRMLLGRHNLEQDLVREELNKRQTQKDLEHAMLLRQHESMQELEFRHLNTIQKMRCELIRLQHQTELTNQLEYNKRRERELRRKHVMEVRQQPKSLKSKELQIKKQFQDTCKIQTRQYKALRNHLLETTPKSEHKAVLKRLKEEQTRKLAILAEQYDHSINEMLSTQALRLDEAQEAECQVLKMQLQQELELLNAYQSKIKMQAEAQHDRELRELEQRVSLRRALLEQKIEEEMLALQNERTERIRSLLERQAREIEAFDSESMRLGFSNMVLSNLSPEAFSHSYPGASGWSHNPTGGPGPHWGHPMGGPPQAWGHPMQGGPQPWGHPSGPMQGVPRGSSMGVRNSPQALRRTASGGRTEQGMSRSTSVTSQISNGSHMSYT

[3] = target: Tyrosine-protein kinase SYK (Homo sapiens) (UniProt P43405); assay: Inhibition of T7 bacteriophage fused human SYK at 10 uM by KINOMEscan analysis relative to control
[4] = target: STE20-like serine/threonine-protein kinase (Homo sapiens) (UniProt Q9H2G2); assay: Inhibition of T7 bacteriophage fused human SLK at 10 uM by KINOMEscan analysis relative to control
STE20-like serine/threonine-protein kinase (Homo sapiens), sequence (Q9H2G2 whole entry, looked up, the tested form may be a part): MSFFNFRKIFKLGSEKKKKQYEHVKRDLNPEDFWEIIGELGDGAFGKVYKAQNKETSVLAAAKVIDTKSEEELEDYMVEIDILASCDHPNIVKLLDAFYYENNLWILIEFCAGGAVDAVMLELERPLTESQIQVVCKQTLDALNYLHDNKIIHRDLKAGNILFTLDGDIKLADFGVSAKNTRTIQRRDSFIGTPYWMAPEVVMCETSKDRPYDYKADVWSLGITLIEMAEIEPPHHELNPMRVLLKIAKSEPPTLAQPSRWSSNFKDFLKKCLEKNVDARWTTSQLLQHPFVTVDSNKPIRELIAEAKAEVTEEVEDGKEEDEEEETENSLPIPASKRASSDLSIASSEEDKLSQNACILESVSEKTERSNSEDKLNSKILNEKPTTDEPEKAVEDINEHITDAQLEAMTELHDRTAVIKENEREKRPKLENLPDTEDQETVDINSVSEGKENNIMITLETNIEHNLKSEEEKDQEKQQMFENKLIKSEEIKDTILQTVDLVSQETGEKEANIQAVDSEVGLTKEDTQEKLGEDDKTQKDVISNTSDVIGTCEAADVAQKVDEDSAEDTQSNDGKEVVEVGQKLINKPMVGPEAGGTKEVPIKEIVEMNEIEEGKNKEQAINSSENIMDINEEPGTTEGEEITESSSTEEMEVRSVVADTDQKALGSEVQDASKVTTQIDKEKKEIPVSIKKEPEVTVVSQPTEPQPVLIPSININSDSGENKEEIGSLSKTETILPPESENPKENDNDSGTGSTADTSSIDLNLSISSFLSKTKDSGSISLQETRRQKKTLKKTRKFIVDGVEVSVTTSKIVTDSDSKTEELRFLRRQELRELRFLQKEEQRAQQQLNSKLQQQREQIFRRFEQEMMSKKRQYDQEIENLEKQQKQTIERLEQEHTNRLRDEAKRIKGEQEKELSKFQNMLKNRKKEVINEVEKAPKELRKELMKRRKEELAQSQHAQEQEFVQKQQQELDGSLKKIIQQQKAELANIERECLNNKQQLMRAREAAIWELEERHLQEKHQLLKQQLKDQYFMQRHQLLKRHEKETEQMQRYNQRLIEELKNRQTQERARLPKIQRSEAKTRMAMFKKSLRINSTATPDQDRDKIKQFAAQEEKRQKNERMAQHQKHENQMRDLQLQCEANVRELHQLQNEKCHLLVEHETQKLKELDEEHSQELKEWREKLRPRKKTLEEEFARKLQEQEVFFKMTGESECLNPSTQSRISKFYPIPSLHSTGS

[5] = target: T2, Mitogen-activated protein kinase kinase kinase 19 (Homo sapiens) (UniProt Q56UN5); assay: Inhibition of T7 bacteriophage fused human YSK4 at 10 uM by KINOMEscan analysis relative to control
T2 sequence (whole entry): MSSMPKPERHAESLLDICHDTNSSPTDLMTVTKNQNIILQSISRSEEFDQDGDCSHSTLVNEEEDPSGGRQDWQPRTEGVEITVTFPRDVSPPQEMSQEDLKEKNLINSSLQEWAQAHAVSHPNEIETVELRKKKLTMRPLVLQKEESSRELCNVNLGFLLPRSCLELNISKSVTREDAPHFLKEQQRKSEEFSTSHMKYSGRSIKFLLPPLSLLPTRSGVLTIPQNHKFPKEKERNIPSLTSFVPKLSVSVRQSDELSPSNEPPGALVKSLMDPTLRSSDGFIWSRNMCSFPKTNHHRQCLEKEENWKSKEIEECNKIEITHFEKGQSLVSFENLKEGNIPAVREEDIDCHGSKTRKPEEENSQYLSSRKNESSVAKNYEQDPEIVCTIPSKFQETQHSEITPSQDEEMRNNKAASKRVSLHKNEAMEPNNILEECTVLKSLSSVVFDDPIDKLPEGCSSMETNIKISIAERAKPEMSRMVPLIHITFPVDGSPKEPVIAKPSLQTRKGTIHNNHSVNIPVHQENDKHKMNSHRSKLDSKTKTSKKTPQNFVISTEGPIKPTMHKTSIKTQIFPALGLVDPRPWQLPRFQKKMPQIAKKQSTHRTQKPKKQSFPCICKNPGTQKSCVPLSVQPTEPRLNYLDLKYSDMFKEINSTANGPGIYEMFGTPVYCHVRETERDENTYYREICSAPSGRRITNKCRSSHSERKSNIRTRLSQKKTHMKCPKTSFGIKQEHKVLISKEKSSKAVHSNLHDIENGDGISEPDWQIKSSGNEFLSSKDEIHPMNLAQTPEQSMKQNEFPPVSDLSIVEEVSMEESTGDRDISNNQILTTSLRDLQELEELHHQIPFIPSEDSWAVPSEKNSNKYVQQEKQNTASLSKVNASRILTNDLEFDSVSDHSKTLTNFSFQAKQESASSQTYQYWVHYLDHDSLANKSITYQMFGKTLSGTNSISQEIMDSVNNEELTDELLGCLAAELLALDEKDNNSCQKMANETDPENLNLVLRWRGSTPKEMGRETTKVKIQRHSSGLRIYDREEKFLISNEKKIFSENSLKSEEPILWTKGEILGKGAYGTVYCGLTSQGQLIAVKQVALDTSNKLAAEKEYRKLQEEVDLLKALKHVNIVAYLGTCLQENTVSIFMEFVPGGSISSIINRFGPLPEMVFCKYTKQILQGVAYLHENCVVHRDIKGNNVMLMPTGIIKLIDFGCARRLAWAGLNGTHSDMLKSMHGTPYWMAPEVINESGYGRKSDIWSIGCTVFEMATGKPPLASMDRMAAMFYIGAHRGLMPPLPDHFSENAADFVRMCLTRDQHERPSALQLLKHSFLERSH

[6] = target: Ribosomal protein S6 kinase alpha-6 (Homo sapiens) (UniProt Q9UK32); assay: Inhibition of T7 bacteriophage fused human N-terminal RSK4 Kinase domain-1 at 10 uM by KINOMEscan analysis relative to control
Ribosomal protein S6 kinase alpha-6 (Homo sapiens), sequence (Q9UK32 whole entry, the tested form may be a part): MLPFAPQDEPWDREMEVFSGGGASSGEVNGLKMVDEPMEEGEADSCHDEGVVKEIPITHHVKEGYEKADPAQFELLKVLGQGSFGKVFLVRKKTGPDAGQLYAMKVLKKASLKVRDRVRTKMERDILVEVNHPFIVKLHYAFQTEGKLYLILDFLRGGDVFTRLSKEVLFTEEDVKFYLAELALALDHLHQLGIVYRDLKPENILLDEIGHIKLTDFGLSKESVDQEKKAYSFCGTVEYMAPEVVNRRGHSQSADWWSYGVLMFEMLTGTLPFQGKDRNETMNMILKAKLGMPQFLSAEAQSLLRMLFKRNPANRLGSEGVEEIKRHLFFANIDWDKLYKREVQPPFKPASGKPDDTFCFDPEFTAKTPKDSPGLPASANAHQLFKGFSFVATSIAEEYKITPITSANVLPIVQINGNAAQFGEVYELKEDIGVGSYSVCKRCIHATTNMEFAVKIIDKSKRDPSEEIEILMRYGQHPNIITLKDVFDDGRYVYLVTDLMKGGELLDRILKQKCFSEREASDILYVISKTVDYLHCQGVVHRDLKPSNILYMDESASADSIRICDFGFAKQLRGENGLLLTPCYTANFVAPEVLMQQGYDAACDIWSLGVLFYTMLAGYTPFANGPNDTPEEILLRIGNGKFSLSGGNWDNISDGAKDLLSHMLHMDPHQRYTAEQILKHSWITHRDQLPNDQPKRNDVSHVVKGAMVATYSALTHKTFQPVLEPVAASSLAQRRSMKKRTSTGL

[7] = target: Dual specificity testis-specific protein kinase 1 (Homo sapiens) (UniProt Q15569); assay: Inhibition of T7 bacteriophage fused human TESK1 at 10 uM by KINOMEscan analysis relative to control
Dual specificity testis-specific protein kinase 1 (Homo sapiens), sequence (Q15569 whole entry, looked up, the tested form may be a part): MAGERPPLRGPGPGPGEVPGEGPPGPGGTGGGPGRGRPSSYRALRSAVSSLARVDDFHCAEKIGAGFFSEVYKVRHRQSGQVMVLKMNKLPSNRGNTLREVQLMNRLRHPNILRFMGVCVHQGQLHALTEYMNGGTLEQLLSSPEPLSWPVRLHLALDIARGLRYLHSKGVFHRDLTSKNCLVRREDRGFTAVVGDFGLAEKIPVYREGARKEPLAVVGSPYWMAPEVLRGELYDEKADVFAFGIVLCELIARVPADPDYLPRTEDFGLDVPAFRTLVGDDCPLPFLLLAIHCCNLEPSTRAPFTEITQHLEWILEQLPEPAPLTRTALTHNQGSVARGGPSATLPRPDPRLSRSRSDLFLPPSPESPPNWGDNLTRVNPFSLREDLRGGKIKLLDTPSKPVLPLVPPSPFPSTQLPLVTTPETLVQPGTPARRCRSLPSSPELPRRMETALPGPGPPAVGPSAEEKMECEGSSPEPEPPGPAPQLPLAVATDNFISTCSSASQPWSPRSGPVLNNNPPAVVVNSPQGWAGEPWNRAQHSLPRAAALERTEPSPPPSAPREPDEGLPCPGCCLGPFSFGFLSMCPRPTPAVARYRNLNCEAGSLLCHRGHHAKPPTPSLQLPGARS

Mitogen-activated protein kinase kinase kinase 20 (Homo sapiens), sequence (Q9NYL2 2-800 limits assumed): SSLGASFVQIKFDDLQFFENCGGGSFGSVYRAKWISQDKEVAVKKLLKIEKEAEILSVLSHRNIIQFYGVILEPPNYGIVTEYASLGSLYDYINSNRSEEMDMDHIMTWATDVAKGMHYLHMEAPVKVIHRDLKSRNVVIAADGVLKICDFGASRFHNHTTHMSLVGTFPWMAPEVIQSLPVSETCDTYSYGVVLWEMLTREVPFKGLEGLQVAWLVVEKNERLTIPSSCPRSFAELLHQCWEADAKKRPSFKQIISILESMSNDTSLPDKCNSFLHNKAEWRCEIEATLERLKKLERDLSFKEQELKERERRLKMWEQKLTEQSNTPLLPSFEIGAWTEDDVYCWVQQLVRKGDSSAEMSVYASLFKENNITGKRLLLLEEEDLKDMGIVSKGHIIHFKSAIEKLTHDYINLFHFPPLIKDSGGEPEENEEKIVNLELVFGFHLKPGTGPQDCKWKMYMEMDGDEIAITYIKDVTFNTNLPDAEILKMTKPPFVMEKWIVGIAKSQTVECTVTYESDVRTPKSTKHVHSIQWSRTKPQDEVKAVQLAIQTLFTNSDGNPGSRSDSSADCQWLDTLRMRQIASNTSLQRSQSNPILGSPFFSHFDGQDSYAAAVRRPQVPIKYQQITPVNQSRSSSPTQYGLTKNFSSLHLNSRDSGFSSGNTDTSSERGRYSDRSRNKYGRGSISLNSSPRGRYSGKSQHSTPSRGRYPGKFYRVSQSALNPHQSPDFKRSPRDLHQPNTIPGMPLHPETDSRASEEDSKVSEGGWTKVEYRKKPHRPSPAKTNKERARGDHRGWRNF

| Compound | inhibition [1] | inhibition [2] | inhibition [3] | inhibition [4] | inhibition [5] | inhibition [6] | inhibition [7] |
| --- | --- | --- | --- | --- | --- | --- | --- |
| COc1cc(N2CCC(N3CCN(C)CC3)CC2)ccc1Nc1ncc2c(n1)N(C)c1ccccc1C(=O)N2C | 99% | 28% | 100% | 100% | 99% | 92% | 82% |
| COc1cc(C(=O)N2CCC(N3CCN(C)CC3)CC2)ccc1Nc1ncc2c(n1)N(C1CCCC1)c1ccccc1C(=O)N2C | 100% | 51% | 100% | 100% | 100% | 100% | 100% |
| CCOc1cc(C(=O)N2CCC(N3CCN(C)CC3)CC2)ccc1Nc1ncc2c(n1)N(C1CCCC1)c1ccccc1C(=O)N2C | 100% | 79% | 100% | 100% | 100% | 100% | 100% |
